In ChEMBL document CHEMBL1130548, “Synthesis and structure-activity relationships for a series of substituted pyrrolidine NK1/NK2 receptor antagonists” (Bioorg Med Chem Lett, 1997):

Experiments:
[1] = The relative permeability was measured from transport studies using polycarbonate membranes and Dulbecco's modified eagle medium with 10% fetal bovine serum.; format: ADME
Substance-P receptor = Substance-P receptor (Cavia porcellus, UniProt P30547); assay: Binding affinity for NK1 receptor in guinea pig lung was determined by using [125 I]-Bolton Hunter labeled SP
Chain of Substance-P receptor (P30547 whole entry): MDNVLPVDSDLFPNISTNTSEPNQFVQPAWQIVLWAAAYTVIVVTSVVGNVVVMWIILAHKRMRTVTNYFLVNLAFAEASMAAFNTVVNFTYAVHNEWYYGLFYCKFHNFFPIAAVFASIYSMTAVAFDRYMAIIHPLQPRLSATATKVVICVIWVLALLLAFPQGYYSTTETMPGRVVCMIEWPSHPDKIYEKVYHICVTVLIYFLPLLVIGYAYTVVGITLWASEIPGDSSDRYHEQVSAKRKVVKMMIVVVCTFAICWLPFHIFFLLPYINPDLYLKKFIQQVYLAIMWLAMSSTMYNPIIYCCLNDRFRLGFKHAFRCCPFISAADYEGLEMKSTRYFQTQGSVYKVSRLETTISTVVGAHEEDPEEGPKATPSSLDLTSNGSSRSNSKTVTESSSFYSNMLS

[2] = Partition coefficient (logP); format: physicochemical; conditions: octanol/water
[3] = Partition coefficient (logD); format: physicochemical; conditions: octanol/water
Rattus norvegicus = species on record: Rattus norvegicus; assay: The relative metabolic stability at 10 uM concentration was determined using rat liver […] fortified with NADPH.; format: functional
[4] = The solubility in a […] phosphate buffer solution at pH 7.4; format: ADME
Cavia porcellus = assay: The perorally administered compound was evaluated for percentage inhibition of capsaicin induced respiratory effects at 10 mg / kg concentration in guinea pig; conditions: po
[5] = The pKa1 value for the compound was determined by titrating in an aqueous solution (ISA).; format: physicochemical; conditions: read-out: pKa1
[6] = The pKa2 value for the compound was determined by titrating in an aqueous solution (ISA).; format: physicochemical; conditions: read-out: pKa2
[7] = The pKa3 value for the compound was determined by titrating in an aqueous solution (ISA).; format: physicochemical; conditions: read-out: pKa3

With COc1cc(C(=O)N2CC[C@](CCN3CCC(C(N)=O)(c4cccnc4)CC3)(c3ccc(Cl)c(Cl)c3)C2)cc(OC)c1OC.Cl the Relative permiability [1] was 0.1, the IC50 (Substance-P receptor) was 4.01 nM and the logP [2] was 1.9. For the same compound, the logD [3] was 2.59, the Relative metabolic stability (Rattus norvegicus) was 0.72 and the solubility [4] was 548 µg/mL. The inhibition in vivo at 10 mg/kg (Cavia porcellus) was 38%, the pKa [5] was 7.6 and the pKa [6] was 3.97.
COc1cc(C(=O)N2CC[C@](CCN3CCC(C(=O)N4CCN(C)CC4)(c4ccccc4)CC3)(c3ccc(Cl)c(Cl)c3)C2)cc(OC)c1OC.Cl gave a Relative permiability [1] of 2.1, an IC50 (Substance-P receptor) of 3.94 nM and a logP ([2]; read-out: logP) of 4.7. The logD ([3]; read-out: logD) was 3.71, the Relative metabolic stability (Rattus norvegicus) was 0.43 and the solubility [4] was 426 µg/mL. It also gave an inhibition in vivo at 10 mg/kg (Cavia porcellus) of 31%, a pKa [5] of 7.92 and a pKa [6] of 6.86.
Work on COc1cc(C(=O)N2CCC(CCN3CCC(C(N)=O)(c4cccnc4)CC3)(c3ccc(Cl)c(Cl)c3)C2)cc(OC)c1OC (configuration not stated) yielded an IC50 (Substance-P receptor) of 8.14 nM.
In the case of COc1cc(C(=O)N2CCC(CCN3CCC(C(N)=O)(c4ccccc4)CC3)(c3cccnc3)C2)cc(OC)c1OC (configuration not stated), the IC50 (Substance-P receptor) is reported as 567 nM.
In the case of COc1cc(C(=O)N2CC[C@](CCN3CCC(C(N)=O)(c4ccncc4)CC3)(c3ccc(Cl)c(Cl)c3)C2)cc(OC)c1OC.Cl, the Relative permiability [1] is reported as 0.1, the IC50 (Substance-P receptor) is reported as 2.49 nM and the logP [2] is reported as 1.9. It also gave a logD [3] of 2.64, a Relative metabolic stability (Rattus norvegicus) of 0.78 and a solubility [4] of 408 µg/mL. The inhibition in vivo at 10 mg/kg (Cavia porcellus) was 20%, the pKa [5] was 7.53 and the pKa [6] was 4.14.
Work on COc1cc(C(=O)N2CCC(CCN3CCC(C(N)=O)(c4ccccc4)CC3)(c3ccc(Cl)c(Cl)c3)C2)cc(OC)c1OC (configuration not stated) yielded an IC50 (Substance-P receptor) of 5.88 nM.
COc1cc(C(=O)N2CCC(CCN3CCC(C(N)=O)(c4ccccc4)CC3)(c3ccc(F)c(F)c3)C2)cc(OC)c1OC (configuration not stated) showed an IC50 (Substance-P receptor) of 9.76 nM.
In the case of COc1cc(C(=O)N2CCC(CCN3CCC(C(=O)N4CCCCC4)(c4ccccc4)CC3)(c3ccc(Cl)c(Cl)c3)C2)cc(OC)c1OC (configuration not stated), the IC50 (Substance-P receptor) is reported as 23.2 nM.
COc1cc(C(=O)N2CCC(CCN3CCC(C(=O)N4CCOCC4)(c4ccccc4)CC3)(c3ccc(Cl)c(Cl)c3)C2)cc(OC)c1OC (configuration not stated) showed an IC50 (Substance-P receptor) of 8.72 nM.
COc1cccc(C2(C(N)=O)CCN(CCC3(c4ccc(Cl)c(Cl)c4)CCN(C(=O)c4cc(OC)c(OC)c(OC)c4)C3)CC2)c1 (configuration not stated) gave an IC50 (Substance-P receptor) of 8.49 nM.
In the case of COc1cc(C(=O)N2CCC(CCN3CCC(C(N)=O)(c4ccncc4)CC3)(c3ccc(Cl)c(Cl)c3)C2)cc(OC)c1OC (configuration not stated), the IC50 (Substance-P receptor) is reported as 4.88 nM.
Work on COc1cc(C(=O)N2CC[C@](CCN3CCC(C(=O)N4CCOCC4)(c4ccccc4)CC3)(c3ccc(Cl)c(Cl)c3)C2)cc(OC)c1OC.Cl yielded a Relative permiability [1] of 3.7, an IC50 (Substance-P receptor) of 4.34 nM and a logP ([2]; read-out: logP) of 4.3. The logD ([3]; read-out: logD) was 3.02, the Relative metabolic stability (Rattus norvegicus) was 0.77 and the solubility [4] was 25 µg/mL. For the same compound, the inhibition in vivo at 10 mg/kg (Cavia porcellus) was 39% and the pKa [5] was 7.51.
In the case of COc1cc(C(=O)N2CCC(CCN3CCC(C(=O)NCCN4CCOCC4)(c4ccccc4)CC3)(c3ccc(Cl)c(Cl)c3)C2)cc(OC)c1OC (configuration not stated), the IC50 (Substance-P receptor) is reported as 7.53 nM.
For COc1cc(C(=O)N2CCC(CCN3CCC(C(N)=O)(c4ccc(F)cc4)CC3)(c3ccc(Cl)c(Cl)c3)C2)cc(OC)c1OC (configuration not stated), the IC50 (Substance-P receptor) was 13.5 nM.
Compound COc1cc(C(=O)N2CCC(CCN3CCC(C(N)=O)(c4ccccc4)CC3)(c3cccc(Cl)c3)C2)cc(OC)c1OC (configuration not stated) has an IC50 (Substance-P receptor) of 10.7 nM.
Work on COc1cc(C(=O)N2CC[C@](CCN3CCC(C(N)=O)(c4ccccc4)CC3)(c3ccc(Cl)c(Cl)c3)C2)cc(OC)c1OC.Cl yielded a Relative permiability [1] of 1, an IC50 (Substance-P receptor) of 3.11 nM and a logP [2] of 3.4. For the same compound, the logD ([3]; read-out: logD) was 3.02, the Relative metabolic stability (Rattus norvegicus) was 1 and the solubility [4] was 70 µg/mL. For the same compound, the inhibition in vivo at 10 mg/kg (Cavia porcellus) was 60% and the pKa [5] was 7.64.
Compound COc1cc(C(=O)N2CC[C@](CCN3CCC(C(=O)N4CCN(C)CC4)(c4cccnc4)CC3)(c3ccc(Cl)c(Cl)c3)C2)cc(OC)c1OC.Cl has a Relative permiability [1] of 1.2, an IC50 (Substance-P receptor) of 2.46 nM and a logP ([2]; read-out: logP) of 3.2. It also gave a logD ([3]; read-out: logD) of 2.41, a pKa [7] of 6.71 and a solubility [4] of 1200 µg/mL. It also gave an inhibition in vivo at 10 mg/kg (Cavia porcellus) of 13%, a pKa [5] of 11.4 and a pKa [6] of 7.76.
COc1ccc(C2(CCN3CCC(C(N)=O)(c4ccccc4)CC3)CCN(C(=O)c3cc(OC)c(OC)c(OC)c3)C2)cc1OC (configuration not stated) gave an IC50 (Substance-P receptor) of 36.7 nM.
COc1cc(C(=O)N2CCC(CCN3CCC(C(N)=O)(c4ccccc4)CC3)(c3ccc(Cl)cc3)C2)cc(OC)c1OC (configuration not stated) showed an IC50 (Substance-P receptor) of 8.62 nM.
For COc1cc(C(=O)N2CCC(CCN3CCC(C(N)=O)(c4ccccc4)CC3)(c3ccc(F)cc3)C2)cc(OC)c1OC (configuration not stated), the IC50 (Substance-P receptor) was 23.3 nM.
With COc1cc(C(=O)N2CCC(CCN3CCC(C(=O)N4CCN(C)CC4)(c4ccccc4)CC3)(c3ccc(Cl)c(Cl)c3)C2)cc(OC)c1OC (configuration not stated) the IC50 (Substance-P receptor) was 4.51 nM.
